What all share (assay): inhibition of tumour cell growth, NCI panel, 48 h
The subject of assay [1] is NCI-H522.
The test system of assay [2] is MDA-MB-435.
Assay [3] concerns T47D.
Assay [4] concerns LOX IMVI.
Assay [5] concerns SN12C.
The subject of assay [6] is HCC 2998.
For assay [7], the system named is SF-295.
Assay [8] relates to SF-539.
Assay [9] relates to CAKI-1.
Assay [10] deals with IGROV-1.
Assay [11] deals with HL-60.
Assay [12] concerns HCT-15.
Assay [13] relates to M14.
For assay [14], the system named is NCI/ADR-RES.
In assay [15] the test system is NCI-H460.
Assay [16] has as its system COLO 205.
Assay [17] has as its system RXF 393.
Assay [18] concerns HCT-116.
For assay [19], the system named is SR.
Assay [20] has as its system A498.

Here are results for ten compounds from ChEMBL document CHEMBL1201862, “PubChem BioAssay data set” (2004).

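Five compound concentrations were applied to cells in 96-well plates for 48 hours; endpoints were derived by simple linear interpolation of the resulting dose-response curve. GI50 is the concentration that inhibits growth by half.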 The source made the active and inactive calls. Cut-off read from the data, not from the text of the source: active = GI50 up to about 1.1 µM and inactive = higher.

On to `O=C1C=CC(=O)c2c(O)c(N3CCN(c4ccccn4)CC3)cc(O)c21`, for which the GI50 is 5.06 µM (inactive) in [1]; 0.851 µM (active) in [2]; 29.4 µM (inactive) in assay [3]; 3.95 µM (inactive) in assay [4]; 7.6 µM (inactive) in assay [5]; 8.73 µM (inactive) in assay [6]. Also, the GI50 in [7] was 17.5 µM (inactive); in assay [8], 4.85 µM (inactive); in [9], 8 µM (inactive); in assay [10] it was 10.1 µM (inactive); in assay [11], 3.01 µM (inactive); in assay [12], 3.28 µM. Further, the GI50 in [13] was 3.29 µM (inactive); in [14], 2.33 µM (inactive); in [15], 3.24 µM (inactive); in assay [16], 5.35 µM (inactive); in [17], 7.26 µM (inactive); in assay [18], 2.85 µM (inactive). For the same compound, the GI50 in assay [19] was 3.19 µM (inactive); in assay [20] it was 34.4 µM (inactive).
Turning to `O=C(O)c1c(-c2c3ccc(=O)cc-3oc3cc(O)ccc23)cc2ccccc2c1-c1ccccc1`, the GI50 in [1] was > 100 µM (inactive); in assay [2], > 100 µM (inactive); in assay [3], > 93.1 µM (inactive); in assay [4], > 100 µM (inactive); in assay [5] it was > 100 µM (inactive); in assay [6], > 34 µM (inactive). In addition, the GI50 is > 100 µM (inactive) in assay [7]; > 100 µM (inactive) in [8]; > 100 µM (inactive) in assay [9]; > 100 µM (inactive) in [10]; > 74.6 µM (inactive) in [11]; above 100 µM in assay [12]. The GI50 in assay [13] is > 100 µM (inactive); in assay [14] it was > 100 µM (inactive); in assay [15], > 66.4 µM (inactive); in assay [16] it was > 100 µM (inactive); in assay [17], > 100 µM (inactive); in [18], > 100 µM (inactive). In addition, the GI50 in assay [19] and in [20] was > 100 µM (inactive) throughout.
As for `CCNCCCCNCCCCNCCCCNCCCCNCC`, the GI50 in assay [1] is > 100 µM (inactive); in assay [2] it was 8.97 µM (inactive); in assay [3], 6.17 µM (inactive); in assay [4], 32 µM (inactive); in [5] it was > 95.1 µM (inactive); in assay [6] it was > 100 µM (inactive). The GI50 in [7] is 42 µM (inactive); in [8] it was 70.1 µM (inactive); in [9], 10.4 µM (inactive); in assay [10], 41.9 µM (inactive); in assay [11], 9.04 µM (inactive); in assay [12], above 100 µM. Besides, the GI50 in [13] was > 100 µM (inactive); in assay [14], > 100 µM (inactive); in assay [15], 32 µM (inactive); in [16], 43.8 µM (inactive); in [17], 27.7 µM (inactive); in assay [18], 11.4 µM (inactive). For the same compound, the GI50 in assay [19] is 56.4 µM (inactive); in assay [20], > 94.2 µM (inactive).
With `COC1(OC)C2(Cl)C(Cl)=C(Cl)C1(Cl)C1c3ccc(C(C)=O)c4cccc(c34)C12` (stereo not given), the GI50 in [1] is 13.3 µM (inactive); in assay [2], 7.67 µM (inactive); in [3], 20.8 µM (inactive); in assay [4], 22.5 µM (inactive); in [5] it was 10.6 µM (inactive); in assay [6], 10.2 µM (inactive). Further, the GI50 is 26 µM (inactive) in assay [7]; 64 µM (inactive) in assay [8]; > 37.4 µM (inactive) in [9]; > 94.6 µM (inactive) in assay [10]; 4.42 µM (inactive) in [11]; 6.24 µM in [12]. The GI50 in [13] was 11.9 µM (inactive); in assay [14], 36.6 µM (inactive); in [15], 14.5 µM (inactive); in assay [16], 12.8 µM (inactive); in assay [17], 27.7 µM (inactive); in assay [18] it was 6.47 µM (inactive). Besides, the GI50 in assay [19] is 13.7 µM (inactive); in assay [20] it was 14.3 µM (inactive).
As for `CC(=O)n1nc(-c2nc3ccccc3nc2Cl)cc1Cl`, the GI50 in [1] is 7.78 µM (inactive); in assay [2] it was 3.94 µM (inactive); in [3], 68.4 µM (inactive); in [4] it was 5.47 µM (inactive); in assay [5], 7.78 µM (inactive); in assay [6], 36.6 µM (inactive). The GI50 was 29.6 µM (inactive) in assay [7]; 2.88 µM (inactive) in assay [8]; 3.34 µM (inactive) in assay [9]; 30.1 µM (inactive) in assay [10]; 8.02 µM (inactive) in [11]; 11.2 µM in assay [12]. The GI50 in [13] is 4.43 µM (inactive); in assay [14], 22.3 µM (inactive); in assay [15] it was 32.8 µM (inactive); in [16], 18.4 µM (inactive); in [17], 40.7 µM (inactive); in assay [18] it was 3.78 µM (inactive). Further, the GI50 in assay [19] was 3.34 µM (inactive); in [20], > 71.4 µM (inactive).
Turning to `S=c1[nH]nc(Cc2ccccc2)c(=S)[nH]1`, the GI50 is > 51.1 µM (inactive) in [1]; 63 µM (inactive) in [2]; 21.6 µM (inactive) in assay [3]; > 52.7 µM (inactive) in assay [4]; 65.3 µM (inactive) in [5]; > 45.9 µM (inactive) in [6]. Further, the GI50 in [7] is > 59.3 µM (inactive); in assay [8], > 76.4 µM (inactive); in assay [9], > 54.8 µM (inactive); in [10], > 53.1 µM (inactive); in assay [11] it was > 54.8 µM (inactive); in assay [12] it was above 62.1 µM. Besides, the GI50 in assay [13] is > 78.9 µM (inactive); in assay [14], 49.4 µM (inactive); in assay [15], > 52.5 µM (inactive); in assay [16] it was > 79.6 µM (inactive); in assay [17], 32.8 µM (inactive); in assay [18], > 61 µM (inactive). The GI50 was > 65 µM (inactive) in assay [19] and > 42.9 µM (inactive) in [20].
For `C=CCC1(OC(C)=O)C2OC(=O)C1(O)OCC2O` (stereo not given), the GI50 in [1], in [2], in assay [3], in assay [4], in [5] and in assay [6] was > 100 µM (inactive) each time. Besides, the GI50 in [7] was > 100 µM (inactive); in assay [8], > 100 µM (inactive); in assay [9], > 100 µM (inactive); in assay [10], > 100 µM (inactive); in [11], > 100 µM (inactive); in [12] it was above 100 µM. Also, the GI50 in [13], in assay [14], in assay [15], in assay [16], in assay [17] and in assay [18] was > 100 µM (inactive) throughout. The GI50 in [19] and in [20] was > 100 µM (inactive) throughout.
For `O=c1c(-c2nc3ccccc3c3ccccc3c2=O)nc2ccccc2c2ccccc12`, the GI50 in assay [1] was 37.1 µM (inactive); in assay [2], 29.2 µM (inactive); in assay [3], 32.6 µM (inactive); in assay [4], 32.1 µM (inactive); in [5], 28.6 µM (inactive); in [6], 21.9 µM (inactive). The GI50 in assay [7] is 29.7 µM (inactive); in [8], 24.5 µM (inactive); in assay [9], 38.9 µM (inactive); in assay [10], 44.9 µM (inactive); in [11], 20 µM (inactive); in [12] it was 32.7 µM. The GI50 is 35.2 µM (inactive) in assay [13]; 34 µM (inactive) in [14]; 41.3 µM (inactive) in [15]; 38.4 µM (inactive) in assay [16]; 26.8 µM (inactive) in assay [17]; 23.8 µM (inactive) in [18]. Moreover, the GI50 in assay [19] was 21.9 µM (inactive); in [20], 35.7 µM (inactive).
`O=C(NC(Nc1ccc(F)cc1)(C(F)(F)F)C(F)(F)F)C(C(F)(F)F)C(F)(F)F`: the GI50 in assay [1] is 13.2 µM (inactive); in [2] it was 1.13 µM (inactive); in assay [3], 3.15 µM (inactive); in [4], 0.617 µM (active); in assay [5], 50.2 µM (inactive); in [6] it was 12 µM (inactive). The GI50 in assay [7] is 3.01 µM (inactive); in [8], 21.4 µM (inactive); in assay [9], > 54.7 µM (inactive); in [10] it was 7.62 µM (inactive); in [11] it was 1.04 µM (active); in [12] it was 2.13 µM. The GI50 in [13] was 0.402 µM (active); in assay [14], 4.46 µM (inactive); in assay [15] it was 7.98 µM (inactive); in assay [16], 6.65 µM (inactive); in [17], 33.3 µM (inactive); in assay [18] it was 4.2 µM (inactive). Besides, the GI50 in [19] is 18.6 µM (inactive); in assay [20], 62.2 µM (inactive).
As to `CC1OC(OC2C[C@](O)(C(=O)CBr)Cc3c(O)c4c(c(O)c32)C(=O)c2ccccc2C4=O)C(F)C(O)C1O` (stereo not given in full), the GI50 in assay [1] is 6.18 µM (inactive); in assay [2], 14.1 µM (inactive); in [3] it was 5.35 µM (inactive); in [4] it was 10 µM (inactive); in assay [5], 6.92 µM (inactive); in assay [6], 36.3 µM (inactive). In addition, the GI50 in assay [7] is 3.54 µM (inactive); in assay [8], 4.54 µM (inactive); in assay [9], 2.71 µM (inactive); in assay [10], 7.89 µM (inactive); in assay [11], 0.838 µM (active); in assay [12] it was 5.86 µM. Also, the GI50 in [13] was 7.14 µM (inactive); in [14], 15.8 µM (inactive); in assay [15], 0.783 µM (active); in assay [16] it was 9.73 µM (inactive); in assay [17] it was 18.5 µM (inactive); in assay [18], 5.83 µM (inactive). In addition, the GI50 in [19] is 0.426 µM (active); in assay [20], 11.8 µM (inactive).
